Laboratory results from patent US20210260051A1, “COMBINATION OF EZH2 INHIBITOR AND CHECKPOINT THERAPY FOR THE TREATMENT OF CANCER” (Board of Regents, The University of Texas System, priority 2018, published 2021).

Columns and labels:
[1] = tested on: Nalm-6 target tumor cells; test: T cell cytotoxicity assay; assay type: cell-based, human; conditions: in vitro
Protocol: T cell cytotoxicity assay was carried out using activated effector T cells (isolated with EasySep Human Naïve CD4^+ T Cell Isolation Kit and EasySep Human CD8^+ T Cell Enrichment Kit; STEMCELL Technologies). Purified naïve CD4 and total CD8 T cells were pre-activated with plate-bound anti-CD3/soluble anti-CD28 for 6 days in the presence or absence of CPI-1205. Activated T cells were then washed and challenged with Nalm-6 target tumor cells, then labeled with CellTrace violet to enable their subsequent discrimination from effector cells. The T cell:tumor cell co-cultures were conducted at different effector:target (E:T) ratios, in the presence of the blinatumomab antibody (10 ng/ml) and CPI-1205 for 20 hours as previously described (3). Target cell death was determined by summing the percentage of apoptotic (Annexin V^+) and dead or dying (7AAD+) target (CellTrace violet^+) cells after overnight culture.

[2] = tested on: CXCL9 and CXCL10 in MB49 tumor; test: relative CXCL9 and CXCL10 expression in tumor of MB49 tumor-bearing mice; assay type: in vivo, mouse; conditions: FIG. 10C-D
MB49 (bladder) tumor = test: MB49 tumor-bearing C57BL/6 mice; assay type: in vivo
Source text: FIGS. 3A-3F: Blocking expression of EZH2 mediated by anti-CTLA-4 using CPI-1205 increases the effectiveness of anti-CTLA-4 therapy. Tumor growth (FIG. 3A), survival (FIG. 3B) and percentages of intra-tumoral CD4^+CD25^+FoxP3^+ regulatory T cells, CD4^+ICOS^+T-bet^+ and CD8^+IFNγ^+ cells (FIG. 3C) in MB49 tumor-bearing mice treated with vehicle, anti CTLA-4, CPI-1205, or the combination. Tumor growth (FIG. 3D) and percentages of CD4^+IFNγ^+ cells and CD8^+TNFα^+ cells in the lymph nodes (LN) (FIG. 3E) of MB49 tumor-bearing Ezh2^fl/+ and FoxP3^CreEzh2^fl/fl mice treated with anti-CTLA-4 on days 7 and 9. (FIG. 3F) Tumor growth and survival of MB49 tumor-bearing Rag-1^−/− mice treated with vehicle or CPI-1205. Data are representative of three independent experiments (n=10 in each group; one-way ANOVA was used to determine significance between the groups. **p<0.01).
It was evaluated whether the combination of anti-CTLA-4 with CPI-1205 increases the effectiveness of anti-CTLA-4. MB49 (bladder) and B 16-F10 (melanoma) tumor-bearing C57BL/6 mice were treated with anti-CTLA-4 and the EZH2 inhibitor CPI-1205 as monotherapies and in combination.
Cell lines and tumor model. Murine bladder cancer cell line (MB49) were provided by Dr. A. Kamat (at The University of Texas MD Anderson Cancer Center) and murine melanoma cell line B16-F10 was obtained from Dr. I. Fidler (The University of Texas MD Anderson Cancer Center). 2×10^5 (MB49) or 2×10^5 (B16-F10) cells were injected subcutaneously or intradermally respectively, in the flanks of C57BL/6 mice (5 or 10 mice per group). […]
Tissue processing and flow cytometry. […] Staining with intracellular anti-Foxp3 (eBioscience, FJK-16 s), […] (eBioscience, PC61.5), antiKi-67 (eBioscience, SolA15), antiIFN-γ (BioLegend, XMG1.2), anti-TNF-α (BioLegend, MP6-XT22), and anti-EZH2 (Cell Signaling Technology, D2C9) were analyzed by flow cytometry according to the manufacturers’ instructions. Flow cytometry data were acquired on BD LSR II (BD Biosciences) and analyzed using FlowJo software (Tree Star, Ashland, Oreg.).

[3] = patients, continuous daily dosing; cited from earlier work

COc1cc(C)[nH]c(=O)c1CNC(=O)c1c(C)n([C@H](C)C2CCN(CC(F)(F)F)CC2)c2ccccc12 [CPI-1205, N-[(4-methoxy-6-methyl-2-oxo-1H-pyridin-3-yl)methyl]-2-methyl-1-[(1R)-1-[1-(2,2,2-trifluoroethyl)piperidin-4-yl]ethyl]indole-3-carboxamide]
cytotoxicity of human effector T cells [1]: enhanced | CXCL9 expression in tumor [2]: increased | CXL10 expression in tumor [2]: increased | proportion of tumor-infiltrating cytotoxic T cells (MB49 (bladder) tumor; in vivo in the murine model (model not named)): enhanced | B cell abundance (MB49 (bladder) tumor; model not named): no difference | myeloid cells (MB49 (bladder) tumor; model not named): effected certain subsets | dose-limiting toxicities [3]: no dose-limiting toxicities | tolerability [3]: well tolerated
